Source: patent US20230416205A1, “COMPOUNDS, COMPOSITIONS, AND METHODS” (Denali Therapeutics Inc, priority 2020, published 2023)

Test system: NLRP3
Assay: IL-1β secretion assay in PMA-differentiated, LPS/nigericin-stimulated THP-1 cells (384-well, ELISA read-out)
Type: cell-based, human
Settings: Homo sapiens, THP-1, Table 4; IL-1β secretion, LPS/nigericin-stimulated THP-1 cells; read-out: IC50
How it was run: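 THP-1 cells differentiated with PMA (5 ng/mL, 40 h), primed in serum-free medium with 25 ng/mL LPS for 2 h, treated with compounds 1 h (0.5% DMSO), then stimulated with nigericin for 2 h at 37 °C. Supernatant IL-1β measured by ELISA; responses normalized to LPS+5 μM nigericin and LPS-only controls.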

| Compound | IC50 [nM] |
| --- | --- |
| Cn1ncc2cnc(NC(=O)CN3CC4(CC4)c4cc(Br)ccc4C3=O)nc21 [Example 408, 2-(6-bromo-1-oxospiro[3H-isoquinoline-4,1′-cyclopropane]-2-yl)-N-(1-methylpyrazolo[3,4-d]pyrimidin-6-yl)acetamide] | 827 |
| O=C(CN1CC2(CC2)c2cc(Br)ccc2C1=O)Nc1ncc2ncsc2n1 [Example 409, 2-(6-bromo-1-oxospiro[3H-isoquinoline-4,1′-cyclopropane]-2-yl)-N-([1,3]thiazolo[5,4-d]pyrimidin-5-yl)acetamide] | 1370 |
| O=C(CN1CC2(CC2)c2cc(Br)ccc2C1=O)Nc1ccnnc1 [Example 410, 2-(6-bromo-1-oxospiro[3H-isoquinoline-4,1′-cyclopropane]-2-yl)-N-pyridazin-4-ylacetamide] | 1520 |
| O=C(CN1CC2(CC2)c2cc(Br)ccc2C1=O)Nc1cnccn1 [Example 411, 2-(6-bromo-1-oxospiro[3H-isoquinoline-4,1′-cyclopropane]-2-yl)-N-pyrazin-2-ylacetamide] | 1340 |
| Cc1nc(NC(=O)CN2CC3(CC3)c3cc(Br)ccc3C2=O)nn1-c1ccccc1 [Example 412, 2-(6-bromo-1-oxospiro[3H-isoquinoline-4,1′-cyclopropane]-2-yl)-N-(5-methyl-1-phenyl-1,2,4-triazol-3-yl)acetamide] | 3170 |
| O=C(CN1CC2(CC2)c2cc(Br)ccc2C1=O)Nc1ncn(-c2ccccc2)n1 [Example 413, 2-(6-bromo-1-oxospiro[3H-isoquinoline-4,1′-cyclopropane]-2-yl)-N-(1-phenyl-1,2,4-triazol-3-yl)acetamide] | 2020 |
| N#Cc1ccc(NC(=O)CN2CC3(CC3)c3cc(Br)ccc3C2=O)cn1 [Example 414, 2-(6-bromo-1-oxospiro[3H-isoquinoline-4,1′-cyclopropane]-2-yl)-N-(6-cyanopyridin-3-yl)acetamide] | 1260 |
| Cn1ccc(N2CCC(NC(=O)CN3CC4(CC4)c4cc(Br)ccc4C3=O)C2)n1 (stereo not drawn) [Example 415, 2-(6-bromo-1-oxospiro[3H-isoquinoline-4,1′-cyclopropane]-2-yl)-N-[1-(1-methylpyrazol-3-yl)pyrrolidin-3-yl]acetamide] | 21000 |
| Cn1cc(N2CCC(NC(=O)CN3CC4(CC4)c4cc(Br)ccc4C3=O)C2)cn1 (stereo not drawn) [Example 416, 2-(6-bromo-1-oxospiro[3H-isoquinoline-4,1′-cyclopropane]-2-yl)-N-[1-(1-methylpyrazol-4-yl)pyrrolidin-3-yl]acetamide] | 20800 |
| Cn1cc(N2CCCC(NC(=O)CN3CC4(CC4)c4cc(Br)ccc4C3=O)C2)cn1 (stereo not drawn) [Example 417, 2-(6-bromo-1-oxospiro[3H-isoquinoline-4,1′-cyclopropane]-2-yl)-N-[1-(1-methylpyrazol-4-yl)piperidin-3-yl]acetamide] | 11700 |
| COc1ccc(NC(=O)CN2CC3(CC3)c3cc(Br)ccc3C2=O)cn1 [Example 418, 2-(6-bromo-1-oxospiro[3H-isoquinoline-4,1′-cyclopropane]-2-yl)-N-(6-methoxypyridin-3-yl)acetamide] | 3480 |
| O=C(CN1CC2(CC2)c2cc(Br)ccc2C1=O)Nc1ncc(C(F)F)cc1F [Example 419, 2-(6-bromo-1-oxospiro[3H-isoquinoline-4,1′-cyclopropane]-2-yl)-N-[5-(difluoromethyl)-3-fluoropyridin-2-yl]acetamide] | 769 |
| O=C(CN1CC2(CC2)c2cc(Br)ccc2C1=O)Nc1ccc(OC(F)F)nc1 [Example 420, 2-(6-bromo-1-oxospiro[3H-isoquinoline-4,1′-cyclopropane]-2-yl)-N-[6-(difluoromethoxy)pyridin-3-yl]acetamide] | 3800 |
| CC(C)n1cnc(NC(=O)CN2CC3(CC3)c3cc(Br)ccc3C2=O)n1 [Example 421, 2-(6-bromo-1-oxospiro[3H-isoquinoline-4,1′-cyclopropane]-2-yl)-N-(1-propan-2-yl-1,2,4-triazol-3-yl)acetamide] | 2730 |
| O=C(CN1CC2(CC2)c2cc(Br)ccc2C1=O)Nc1ncn(C2CC2)n1 [Example 422, 2-(6-bromo-1-oxospiro[3H-isoquinoline-4,1′-cyclopropane]-2-yl)-N-(1-cyclopropyl-1,2,4-triazol-3-yl)acetamide] | 3080 |
| O=C(CN1CC2(CC2)c2cc(CC3CC3)ccc2C1=O)Nc1ncc(F)cn1 [Example 423, 2-[6-(cyclopropylmethyl)-1-oxospiro[3H-isoquinoline-4,1′-cyclopropane]-2-yl]-N-(5-fluoropyrimidin-2-yl)acetamide] | 18400 |
| O=C(CN1CC2(CC2)c2cc(Br)ccc2C1=O)Nc1ncc(C2=COCC2)cn1 [Example 424, 2-(6-bromo-1-oxospiro[3H-isoquinoline-4,1′-cyclopropane]-2-yl)-N-[5-(2,3-dihydrofuran-4-yl)pyrimidin-2-yl]acetamide] | 700 |
| O=C(CN1CC2(CC2)c2cc(Br)ccc2C1=O)Nc1ncn(CC(F)(F)F)n1 [Example 425, 2-(6-bromo-1-oxospiro[3H-isoquinoline-4,1′-cyclopropane]-2-yl)-N-[1-(2,2,2-trifluoroethyl)-1,2,4-triazol-3-yl]acetamide] | 2850 |
| O=C(CN1CC2(CC2)c2cc(Br)ccc2C1=O)NC1CC(c2ccccc2)C1 (stereo not drawn) [Example 427, 2-(6-bromo-1-oxospiro[3H-isoquinoline-4,1′-cyclopropane]-2-yl)-N-(3-trans-phenylcyclobutyl)acetamide] | 6280 |
| O=C(CN1CC2(CC2)c2cc(Br)ccc2C1=O)Nc1nc2c(Cl)cccn2n1 [Example 429, 2-(6-bromo-1-oxospiro[3H-isoquinoline-4,1′-cyclopropane]-2-yl)-N-(8-chloro-[1,2,4]triazolo[1,5-a]pyridin-2-yl)acetamide] | 1660 |
| O=C(CN1CC2(CC2)c2cc(Br)ccc2C1=O)Nc1ccc(=O)[nH]n1 [Example 430, 2-(6-bromo-1-oxospiro[3H-isoquinoline-4,1′-cyclopropane]-2-yl)-N-(6-oxo-1H-pyridazin-3-yl)acetamide] | 634 |
